This assay can be described thus: Micro-Cup Burner Test (extinguishing concentration; Mass Ratio Calculation vs HALON 1211). The conditions noted are these: for Mass Ratio to HALON™ 1211: calculated from extinguishing volume % and molecular weight relative to HALON 1211 (165 g/mole); for Ext. Conc. (vol %): volume % in air required to extinguish the flame within an average time of 30 seconds or less, propane fuel. From the text: The Micro-Cup Burner Test is a laboratory test which measures the extinguishing ability of an agent based on the quantity of agent required to extinguish a fire under the following test conditions. The Micro-Cup Burner Test utilizes a quartz concentric-tube laminar-diffusion flame burner (micro-cup burner, of similar design to the above-described cup apparatus) aligned vertically with all flows upward. A fuel, typically propane unless otherwise specified, flows at 10.0 sccm (standard cubic centimeters per minute) through a 5-mm I.D. inner quartz tube which is centered in a 15-mm I.D. quartz chimney. The chimney extends 4.5 cm above the inner tube. Air flows through the annular region between the inner tube and the chimney at 1000 sccm. Prior to the addition of extinguishing composition, a visually stable flame is supported on top of the inner tube, and the resulting combustion products flow out through the chimney. An extinguishing composition to be evaluated is introduced into the air stream upstream of the burner. Liquid compositions are introduced by a syringe pump (which is calibrated to within 1%) and are volatilized in a heated trap. Gaseous compositions are introduced via a mass-flow controller to the air stream upstream from the burner. For consistency, the air-gaseous composition mixture then flows through the heated trap prior to its introduction to the flame burner. All gas flows are maintained by electronic mass-flow controllers which are calibrated to within 2%. The fuel is ignited to produce a flame and is allowed to burn for 90 seconds. After 90 seconds, a specific flow rate of composition is introduced, and the time required for the flame to be extinguished is recorded. The reported extinguishing concentrations are the recorded volume % of extinguishing composition in air required to extinguish the flame within an average time of 30 seconds or less.
The above-mentioned cup burner test measures the performance of an extinguishing composition by determining the minimum volume percent of composition in air required to extinguish a test fire. However, it is often desirable to directly compare the fire performance of an experimental extinguishing composition (e.g., a fluorinated ketone) against the performance of a state-of-the-art extinguishing composition, such as HALON™ 1211 fire extinguishing agent (CF2ClBr, a bromochlorofluorocarbon). One way to make such a comparison is to derive the mass ratio of experimental composition to HALON™ 1211 fire extinguishing agent from the volume percentages of each composition required for extinguishing. The mass ratio can be calculated by dividing the experimental composition's extinguishing volume percent by the HALON™ 1211 agent's extinguishing volume percent and multiplying the resulting quotient (which, according to the ideal gas law, also represents the ratio of mole percents) times the weight average molecular weight of the experimental composition divided by the molecular weight of HALON™ 1211 agent (165 g/mole).
In Comparative Example C1, the extinguishing concentration (volume % in air) of HALON™ 1211 fire extinguishing agent was determined as using the Micro-Cup Burner Test.
In Examples 1-16, the extinguishing concentration of several perfluorinated ketones was also determined using the Micro-Cup Burner Test. The mass ratio as compared to HALON™ 1211 fire extinguishing agent was then calculated using the Mass Ratio Calculation.
In Comparative Examples C2-C11, various fluorinated extinguishing compositions known in the art (hydrofluorocarbons, perfluorocarbons, hydrochlorofluorocarbons, hydrofluoroethers, and iodofluorocarbons) were evaluated for their extinguishing concentration, and subsequently their mass ratios were calculated with respect to HALON™ 1211 agent. […]

On to `FC(F)(Cl)Br` [Comparative Example C1, bromochlorodifluoromethane, reference compound], for which the “Mass Ratio to HALON™ 1211” value is listed as 1.00 and the “Ext. Conc. (vol %)” value is 3.6 vol %.

For `FC(F)(F)I` [Comparative Example C2, iodotrifluoromethane, reference compound], the “Mass Ratio to HALON™ 1211” value is recorded as 1.14 and the “Ext. Conc. (vol %)” value is given as 3.5 vol %.

Regarding `FC(F)(F)CC(F)(F)F` [Comparative Example C3, 1,1,1,3,3,3-hexafluoropropane, reference compound], the “Mass Ratio to HALON™ 1211” value is reported as 1.61 and the “Ext. Conc. (vol %)” value was 6.3 vol %.

`FC(C(F)(F)F)C(F)(F)F` [Comparative Example C5, 1,1,1,2,3,3,3-heptafluoropropane, reference compound]: the “Mass Ratio to HALON™ 1211” value is 1.90 and the “Ext. Conc. (vol %)” value was 6.6 vol %.

For the compound `FC(F)(F)C(F)(F)C(F)(F)F` [Comparative Example C6, perfluoro-n-propane, reference compound], the “Mass Ratio to HALON™ 1211” value is 2.05 and the “Ext. Conc. (vol %)” value is reported as 6.5 vol %.

As for `FC(F)(F)C(F)(F)C(F)(F)C(F)(F)F` [Comparative Example C7, perfluoro-n-butane, reference compound], the “Mass Ratio to HALON™ 1211” value was 2.12 and the “Ext. Conc. (vol %)” value is listed as 5.3 vol %.

With `FC(F)(F)C(F)(F)C(F)(F)C(F)(F)C(F)(F)C(F)(F)F` [Comparative Example C8, perfluoro-n-hexane, reference compound], the “Mass Ratio to HALON™ 1211” value was 2.27 and the “Ext. Conc. (vol %)” value is reported as 4.0 vol %.

Regarding `COC(F)(C(F)(F)F)C(F)(C(F)(F)F)C(F)(F)F` (stereo not shown) [Comparative Example C9, 1,1,1,2,3,4,4,4-octafluoro-3-trifluoromethyl-2-methoxybutane, reference compound], the “Mass Ratio to HALON™ 1211” value is reported as 2.27 and the “Ext. Conc. (vol %)” value is listed as 4.5 vol %.

As to `COC(F)(F)C(F)(F)C(F)(F)C(F)(F)F` [Comparative Example C10, perfluorobutyl Methyl Ether, reference compound], the “Mass Ratio to HALON™ 1211” value is reported as 2.52 and the “Ext. Conc. (vol %)” value is listed as 6.1 vol %.

On to `COC(F)(F)C(F)(F)C(F)(F)F` [Comparative Example C11, 1,1,1,2,2,3,3-heptafluoro-3-methoxypropane, reference compound], for which the “Mass Ratio to HALON™ 1211” value was 2.52 and the “Ext. Conc. (vol %)” value is on record as 7.5 vol %.

As for `CC(=O)C(F)(C(F)(F)F)C(F)(F)F` [Comparative Example C12, 3,4,4,4-tetrafluoro-3-trifluoromethylbutan-2-one, reference compound], the “Mass Ratio to HALON™ 1211” value is on record as 2.42 and the “Ext. Conc. (vol %)” value is recorded as 6.8 vol %.

For the compound `CC(=O)C(F)(F)C(F)(F)C(F)(F)C(F)(F)F` [Comparative Example C13, perfluorobutyl methyl ketone, reference compound], the “Mass Ratio to HALON™ 1211” value is recorded as 2.77 and the “Ext. Conc. (vol %)” value was 6.3 vol %.

As to `O=C(C(F)(C(F)(F)F)C(F)(F)F)C(F)(C(F)(F)F)C(F)(F)F` [Example 2, 1,1,1,2,4,5,5,5,6,6,6-octafluoro-2,4-bis(trifluoromethyl)pentan-3-one], the “Mass Ratio to HALON™ 1211” value was 2.03 and the “Ext. Conc. (vol %)” value is recorded as 3.3 vol %.

With `O=C(C(F)(F)F)C(F)(F)C(F)(F)C(F)(F)C(F)(F)C(F)(F)C(F)(F)F` [Example 4, 1,1,1,3,3,4,4,5,5,6,6,7,7,8,8,8-hexadecafluorooctan-2-one], the “Mass Ratio to HALON™ 1211” value is 2.17 and the “Ext. Conc. (vol %)” value was 3.1 vol %.

For the compound `O=C(C(F)(F)F)C(F)(C(F)(F)F)C(F)(F)F` [Example 5, 1,1,1,3,4,4,4-heptafluoro-3-trifluoromethylbutan-2-one], the “Mass Ratio to HALON™ 1211” value was 2.19 and the “Ext. Conc. (vol %)” value is on record as 4.9 vol %.

With `O=C(C(F)(F)C(F)F)C(F)(C(F)(F)F)C(F)(F)F` [Example 6, 1,1,1,2,4,4,5,5-octafluoro-2-trifluoromethylpentan-3-one], the “Mass Ratio to HALON™ 1211” value is listed as 2.20 and the “Ext. Conc. (vol %)” value is 4.4 vol %.

`O=C(C(F)(F)C(F)(F)C(F)(F)F)C(F)(C(F)(F)F)C(F)(F)F` [Example 7, 1,1,1,2,4,4,5,5,6,6,6-undecafluoro-2-trifluoromethylhexan-3-one]: the “Mass Ratio to HALON™ 1211” value is 2.21 and the “Ext. Conc. (vol %)” value is reported as 3.6 vol %.

As to `O=C(C(F)(F)Cl)C(F)(C(F)(F)F)C(F)(F)F` [Example 8, 1-chloro-1,1,3,4,4,4-hexafluoro-3-trifluoromethyl-butan-2-one], the “Mass Ratio to HALON™ 1211” value is listed as 2.23 and the “Ext. Conc. (vol %)” value is reported as 4.7 vol %.

`O=C(C(F)(F)C(F)(F)F)C(F)(F)C(F)(F)C(F)(F)F` [Example 9, 1,1,1,2,2,4,4,5,5,6,6,6-dodecafluorohexan-3-one]: the “Mass Ratio to HALON™ 1211” value is 2.39 and the “Ext. Conc. (vol %)” value was 4.5 vol %.

As for `O=C(CC(=O)C(F)(F)F)C(F)(F)F` [Example 10, 1,1,1,5,5,5-hexafluoropentan-2,4-dione], the “Mass Ratio to HALON™ 1211” value is reported as 2.55 and the “Ext. Conc. (vol %)” value is given as 7.3 vol %.

As to `O=C(C(=O)C(F)(C(F)(F)F)C(F)(F)F)C(F)(C(F)(F)F)C(F)(F)F` [Example 11, 1,1,1,2,5,6,6,6-octafluoro-2,5-bis(trifluoromethyl)hexan-3,4-dione], the “Mass Ratio to HALON™ 1211” value is 2.57 and the “Ext. Conc. (vol %)” value is reported as 4.0 vol %.

Take `O=C(C(F)(F)C(F)(F)C(F)(F)F)C(F)(F)C(F)(F)C(F)(F)F` [Example 12, 1,1,1,2,2,3,3,5,5,6,6,7,7,7tetradecafluoroheptan-4-one]: the “Mass Ratio to HALON™ 1211” value is 2.64 and the “Ext. Conc. (vol %)” value is recorded as 4.3 vol %.

Take `O=C(C(F)(F)F)C(F)(F)C(F)(F)F` [Example 13, 1,1,1,3,3,4,4,4-octafluorobutan-2-one]: the “Mass Ratio to HALON™ 1211” value is listed as 2.68 and the “Ext. Conc. (vol %)” value is reported as 7.4 vol %.

Take `O=C(C(F)(F)C(F)(F)OC(F)(F)F)C(F)(C(F)(F)F)C(F)(F)F` [Example 14, 1,1,2,2,4,5,5,5-octafluoro-1-trifluoromethoxy-4-trifluoromethylpentan-3-one]: the “Mass Ratio to HALON™ 1211” value is given as 2.76 and the “Ext. Conc. (vol %)” value is reported as 4.3 vol %.

As to `O=C1C(F)(F)C(F)(F)C(F)(F)C(F)(F)C1(F)F` [Example 15, decafluorocyclohexanone], the “Mass Ratio to HALON™ 1211” value is given as 2.80 and the “Ext. Conc. (vol %)” value is listed as 6.0 vol %.

`O=C(C(F)(F)C(F)(F)C(F)(F)C(F)(F)F)C(F)(C(F)(F)F)C(F)(F)F` [Example 16, 1,1,1,2,4,4,5,5,6,6,7,7,7-tridecafluoro-2-trifluoromethylheptan-3-one]: the “Mass Ratio to HALON™ 1211” value is 3.00 and the “Ext. Conc. (vol %)” value is reported as 4.3 vol %.
